We go through one compound from patent publication US20090227503A1, “PARATHYROID HORMONE TREATMENT FOR ENHANCED ALLOGRAFT AND TISSUE-ENGINEERED RECONSTRUCTION OF BONE DEFECTS” (UNIVERSITY OF ROCHESTER, priority 2008, published 2009).

For experiment [1], the system named is grafted femurs. Put plainly: Torsion testing of grafted femurs (Example 4). The format is in vivo, mice. As for the experimental part: Four-mm long bone allografts were harvested from donor mice, and were processed and implanted into intecalary defects 195 in the femur of other mice and secured in place using a stainless steel intramedullary pin 190, as shown in FIG. 13. One week after surgery, daily injections of 40 μg/kg hrPTH (1-34) (Lilly, Inc., Indianapolis, Ind.) were initiated in half of the mice, while the others received injections of saline control. Weekly x-rays were taken to monitor progression (Faxitron X-Ray LLC, Wheeling, Ill.).
One cohort of the study groups used 14 mice from each treatment (PTH and control) for imaging and mechanical material testing and were sacrificed 6 weeks after surgery. Each femur was harvested by disarticulating the hip and knee and removing the intramedullary stainless-steel pin. Specimens were moistened with saline and frozen at −20° C. until thawed for micro-CT imaging and torsion testing. Specimens were scanned at […] isotropic resolution using the Scanco VivaCT 40 (Scanco Medical AG, Bassersdorf, Switzerland). From these 3D images, the graft and callus bone volumes (BVGraft, BVCallus) were measured by manual segmentation, followed by standardized thresholding at a grayscale corresponding to 750 mgHA/cm^3. The cross-sectional polar moment of inertias (PMI) were computed for each slice throughout the grafted region and the maximum, minimum and average PMI (PMIMax, PMIMin, PMIAve) were investigated to determine their contribution to the biomechanics of the grafted femurs.
The Union Ratio was also calculated. The Union Ratio measures the graft surface area upon which mineralized callus has formed. If the voxels adjacent to the graft surface are boney callus, the area of that region of the graft is measured and normalized to the total graft surface area. Imaging data (not shown) indicated the bare surface of the graft in blue, with regions of union to the callus depicted as red. Each half (proximal and distal) of the graft was evaluated separately and the lesser ratio of union area to total graft surface area was given as the Union Ratio for that specimen. Callus formation that bridged from host-to-host over the graft was determined by evaluating serial axial cross sections from micro-CT images and given a binary result. These samples were then mechanically tested in torsion. Yield torque (TYield), ultimate torque (TUlt), torsional rigidity (TR), toughness (or work to failure) and the twist at ultimate torque were determined for each specimen. Finally, the mode of failure for each specimen was determined using an x-ray image analysis (not shown).

Experiment [2] deals with femoral allograft. In words: Mouse femoral allograft, micro-CT of callus (Example 1). The format is in vivo, C57B1/6 mice. As for the experimental part: Femoral allograft surgeries were performed on C57B1/6 mice as previously described. Briefly, a 4 mm mid-diaphyseal segment was removed by osteotomizing the femur and a processed allograft was implanted and secured in place with a stainless steel intramedullary (IM) pin. After 1 week, 8 mice were given daily subcutaneously injections of 0.4 mg/kg PTH (1-34) (Forteo, Eli Lilly and Company, Indianapolis, Ind.) while 5 mice with grafts were given the same volume of saline daily, serving as controls. Animals were sacrificed 6 weeks after surgery, the grafted femurs were carefully dissected and cleaned without disrupting the callus, and the IM pin was carefully removed. The femurs were then stored frozen at −80° C. until evaluation. Specimens were scanned at 10.5 micron isotropic resolution using a Scanco VivaCT 40 (Scanco Medical AG, Bassersdorf, Switzerland). Callus bone volume adjacent to the graft was manually segmented from all axial slices that contained grafted bone. The mineralized callus volume, callus bone mineral density (BMD) and total mineral content (BMC) were determined.

The mark [3] stands for this setting: PTH Graft, 6 weeks after implantation, mean.
[4] abbreviates: 0.4 mg/kg PTH (1-34) s.c. daily from week 1, 6 weeks after surgery, Mean (Standard Deviation).
[5] abbreviates: vs saline, 6 weeks after surgery.

`CC[C@H](C)[C@H](NC(=O)[C@H](CCC(=O)O)NC(=O)[C@H](CO)NC(=O)[C@@H](NC(=O)[C@@H](N)CO)C(C)C)C(=O)N[C@@H](CCC(N)=O)C(=O)N[C@@H](CC(C)C)C(=O)N[C@@H](CCSC)C(=O)N[C@@H](Cc1cnc[nH]1)C(=O)N[C@@H](CC(N)=O)C(=O)N[C@@H](CC(C)C)C(=O)NCC(=O)N[C@@H](CCCCN)C(=O)N[C@@H](Cc1cnc[nH]1)C(=O)N[C@@H](CC(C)C)C(=O)N[C@@H](CC(N)=O)C(=O)N[C@@H](CO)C(=O)N[C@@H](CCSC)C(=O)N[C@@H](CCC(=O)O)C(=O)N[C@@H](CCCN=C(N)N)C(=O)N[C@H](C(=O)N[C@@H](CCC(=O)O)C(=O)N[C@@H](Cc1c[nH]c2ccccc12)C(=O)N[C@@H](CC(C)C)C(=O)N[C@@H](CCCN=C(N)N)C(=O)N[C@@H](CCCCN)C(=O)N[C@@H](CCCCN)C(=O)N[C@@H](CC(C)C)C(=O)N[C@@H](CCC(N)=O)C(=O)N[C@@H](CC(=O)O)C(=O)N[C@H](C(=O)N[C@@H](Cc1cnc[nH]1)C(=O)N[C@@H](CC(N)=O)C(=O)N[C@@H](Cc1ccccc1)C(=O)O)C(C)C)C(C)C` [PTH, PTH (1-34)]: in experiment [1] (6 weeks), the “Grafted femur mode of failure after torsion testing: Early Union (number of femurs)” value was 3, the “Grafted femur mode of failure after torsion testing: Mature Union (number of femurs)” value came to 3, the “Grafted femur mode of failure after torsion testing: Pre-Union (number of femurs)” value was found to be 8 and the “rate of twist at TUlt as fraction of control grafted specimens” value is reported as “⅓”. In addition, in experiment [1] (setting [3]), the TR is 1175 N*mm^2/Rad, the Tult stood at 13.2 N*mm, the “Twist at Tult” value is given as 0.020 Rad/mm and the Tyield is on record as 10.5 N*mm. In experiment [1] (setting [3]), the “Work to TUlt” value is 0.167 Nmm*Rad/mm and the “Work to TYield” value turned out to be 0.0687 Nmm*Rad/mm. In addition, in experiment [1] (saline only 3, not statistically significant), the “specimens that failed in a manner not simply graft-pullout from the host” value is on record as “Six”. Also, the “Yield Torque, greater by” value in experiment [1] (vs saline grafted femurs, 6 weeks) turned out to be 72%. In addition, the “Ultimate Torque, greater by” value in experiment [1] (vs saline grafted femurs, 6 weeks, not significant) worked out at 23%. Moreover, the “torsional rigidity of grafted femurs” value in experiment [1] (vs saline, 6 weeks) is “doubled”. Further, in experiment [2] (setting [4]), the “Callus BMC” value was 2.77 (0.53) mg HA, the “Callus BMD” value was 665 (17) mg HA/cm^3 and the “Callus Bone Volume” value is 4.17 (0.80) mm^3. For the same compound, in experiment [2] (6 weeks after surgery, saline 20%), the “samples with callus bridging the graft from host to host” value came out at 63%. Also, in experiment [2] (setting [5]), the “increase in callus bone volume” value is recorded as 1.9 fold, the “net increase in total callus mineral content” value was 60% and the “reduction in callus BMD” value was determined as 13%.
